Here are results for three molecules from patent US20230127326A1, “C3-SUBSTITUTED 1H-PYRAZOLO[4,3-d]PYRIMIDINE COMPOUNDS AS TOLL-LIKE RECEPTOR 7 (TLR7) AGONISTS” (BRISTOL-MYERS SQUIBB COMPANY, priority 2020, published 2023).

One may read the EC50 as the concentration needed to bring the measured effect to its halfway point.

The subject of experiment [1] is CD69. Briefly: Induction of CD69 in human whole blood. Conditions: 17 hrs at 37° C., y-axis 100% set to 1 uM of resiquimod, average where assay was performed multiple times, read-out: hWB CD69 EC50. It counts as cell-based. Here is the method:
The induction of Type I interferon (IFN) MX-1 genes and the B-cell activation marker CD69 are downstream events that occur upon activation of the TLR7 pathway. The following is a human whole blood assay that measures their induction in response to a TLR7 agonist.
Heparinized human whole blood was harvested from human subjects and treated with test TLR7 agonist compounds at 1 mM. The blood was diluted with RPMI 1640 media and Echo was used to predot 10 nL per well giving a final concentration of 1 uM (10 nL in 10 uL of blood). After mixing on a shaker for 30 sec, the plates were covered and placed in a 37° C. chamber for o/n=17 hrs. Fixing/lysis buffer was prepared (5×->1× in H2O, warm at 37° C.; Cat #BD 558049) and kept the perm buffer (on ice) for later use.
For surface markers staining (CD69): prepared surface Abs: 0.045 ul hCD14-FITC (ThermoFisher Cat #MHCD1401)+0.6 ul hCD19-ef450 (ThermoFisher Cat #48-0198-42)+1.5 ul hCD69-PE (cat #BD555531)+0.855 ul FACS buffer. Added 3 ul/well, spin 1000 rpm for 1 min and mixed on shaker for 30 sec, put on ice for 30 mins. Stop stimulation after 30 minutes with 70 uL of prewarmed 1× fix/lysis buffer and use Feliex mate to resuspend (15 times, change tips for each plate) and incubate at 37 C for 10 minutes.
Centrifuge at 2000 rpm for 5 minutes aspirate with HCS plate washer, mix on shaker for 30 sec and then wash with 70 uL in dPBS and pelleted 2×s (2000 rpm for 5 min) and 50 ul wash in FACS buffer pelleted 1×s (2000 rpm for 5 min). Mix on shaker for 30 sec. For Intracellular markers staining (MX-1): Add 50 ul of BD Perm buffer III and mix on shaker for 30 sec. Incubate on ice for 30 minutes (in the dark). Wash with 50 uL of FACS buffer 2× (spin @2300 rpm×5 min after perm) followed by mixing on shaker for 30 sec. Resuspended in 20 ul of FACS buffer containing MX1 antibody ( )(4812)-Alexa 647: Novus Biologicals #NBP2-43704AF647) 20 ul FACS bf+0.8 ul hIgG+0.04 ul MX-1. Spin 1000 rpm for 1 min, mix on shaker for 30 se and the samples were incubated at RT in the dark for 45 minutes followed by washing 2×FACS buffer (spin @2300 rpm×5 min after perm). Resuspend 20 ul (35 uL total per well) of FACS buffer and cover with foil and place in 4° C. to read the following day. Plates were read on iQuePlus. The results were loaded into toolset and […] curves are generated in curve master. The y-axis 100% is set to 1 uM of resiquimod.

For experiment [2], the target named is T1, human TLR7 (Homo sapiens, UniProt Q9NYK1).
T1 construct: host or cells: HEK-Blue TLR7 cells (engineered human embryonic kidney cells)
T1 sequence (Q9NYK1 27-1049): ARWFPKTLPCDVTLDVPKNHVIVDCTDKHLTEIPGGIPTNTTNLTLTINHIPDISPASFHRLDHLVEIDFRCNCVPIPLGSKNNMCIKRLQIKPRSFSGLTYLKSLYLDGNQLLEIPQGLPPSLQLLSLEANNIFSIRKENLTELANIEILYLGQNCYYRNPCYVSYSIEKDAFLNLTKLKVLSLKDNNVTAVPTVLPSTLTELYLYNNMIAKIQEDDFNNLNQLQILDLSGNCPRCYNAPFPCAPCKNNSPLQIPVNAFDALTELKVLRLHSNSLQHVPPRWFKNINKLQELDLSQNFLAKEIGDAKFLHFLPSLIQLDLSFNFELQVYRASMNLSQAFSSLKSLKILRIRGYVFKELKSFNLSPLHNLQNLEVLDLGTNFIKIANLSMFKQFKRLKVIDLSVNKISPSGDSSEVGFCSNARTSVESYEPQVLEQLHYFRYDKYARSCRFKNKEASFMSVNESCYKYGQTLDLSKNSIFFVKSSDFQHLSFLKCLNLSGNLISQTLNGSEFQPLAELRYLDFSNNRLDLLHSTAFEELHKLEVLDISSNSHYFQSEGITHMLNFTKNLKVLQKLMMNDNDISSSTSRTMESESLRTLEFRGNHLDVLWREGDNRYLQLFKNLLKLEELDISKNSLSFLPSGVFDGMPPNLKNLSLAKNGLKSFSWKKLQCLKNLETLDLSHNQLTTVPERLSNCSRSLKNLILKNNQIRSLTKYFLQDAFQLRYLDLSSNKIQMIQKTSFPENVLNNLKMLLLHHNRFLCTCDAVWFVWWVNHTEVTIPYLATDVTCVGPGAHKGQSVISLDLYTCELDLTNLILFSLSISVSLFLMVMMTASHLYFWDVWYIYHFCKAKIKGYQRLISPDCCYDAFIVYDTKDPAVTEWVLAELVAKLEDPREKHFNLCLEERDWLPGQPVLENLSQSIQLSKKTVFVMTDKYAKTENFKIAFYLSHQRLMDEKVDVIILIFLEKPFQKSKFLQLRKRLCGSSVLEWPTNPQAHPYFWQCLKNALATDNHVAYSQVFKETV
Briefly: Human TLR7 agonist activity reporter assay (HEK-Blue TLR7 cells, SEAP reporter). Conditions: 18 h treatment, average where assay was performed multiple times, read-out: hTLR7 Agonism EC50. It counts as cell-based. Here is the method:
This procedure describes a method for assaying human TLR7 (hTLR7) agonist activity of the compounds disclosed in this specification.
HEK-Blue™ TLR7 cells were added to each well of a 384-well tissue-culture plate (15,000 cells per well) and incubated 16-18 h at 37° C., 5% CO2. Compounds (100 nl) were dispensed into wells containing the HEK-Blue™ TLR cells and the treated cells were incubated at 37° C., 5% CO2. After 18 h treatment ten microliters of freshly-prepared Quanti-Blue™ reagent (Invivogen) was added to each well, incubated for 30 min (37° C., 5% CO2) and SEAP levels measured using an Envision plate reader (OD=620 nm). The half maximal effective concentration values (EC50; compound concentration which induced a response halfway between the assay baseline and maximum) were calculated.

As for `CCCCNc1nc(N)nc2c(C)nn(Cc3ncc(CN4CCN(CCO)CC4)cc3OC)c12` [Compound 131, 2-{4-[(6-{[5-amino-7-(butyl-amino)-3-methyl-1H-pyrazolo[4,3-d]pyrimidin-1-yl]methyl}-5-methoxy-pyridin-3-yl)methyl]piperazin-1-yl}ethan-1-ol], the EC50 came to 41.4 nM in experiment [1] and 224 nM in experiment [2].
With `CCC[C@@H](CCO)Nc1nc(N)nc2c(F)nn(Cc3ccc(CN[C@@H]4COC[C@H]4O)cc3OC)c12` [Compound 132, (3S,4R)-4-[({4-[(5-amino-3-fluoro-7-{[(3S)-1-hydroxy-hexan-3-yl]amino}-1H-pyrazolo[4,3-d]pyrimidin-1-yl)-methyl]-3-methoxyphenyl}-methyl)amino]oxolan-3-ol], the results for the EC50 in experiment [1] and in experiment [2] were 9.3 nM and 40.4 nM, respectively.
The matching figures for `CCC[C@@H](CCO)Nc1nc(N)nc2c(F)nn(Cc3ccc(CN[C@H]4COC[C@@H]4O)cc3OC)c12` [Compound 133, (3R,4S)-4-[({4-[(5-amino-3-fluoro-7-{[(3S)-1-hydroxy-hexan-3-yl]amino}-1H-pyrazolo[4,3-d]pyrimidin-1-yl)-methyl]-3-methoxyphenyl}-methyl)amino]oxolan-3-ol]: 12.6 nM and 47.9 nM.
